Data reported in ChEMBL document CHEMBL5385841, “Recent advances in gout drugs” (Eur J Med Chem, 2023).

What was measured:
[1] = biological target: Xanthine dehydrogenase/oxidase (Homo sapiens, UniProt P47989); test: Inhibition of XO (unknown origin)
[2] = Oral bioavailability in rat relative to urinary excretion; assay type: ADME, organism-based; settings: urine
[3] = biological target: T1, Broad substrate specificity ATP-binding cassette transporter ABCG2 (Homo sapiens, UniProt Q9UNQ0); test: Inhibition of ABCG2 (unknown origin)
T1 sequence (Q9UNQ0 whole entry): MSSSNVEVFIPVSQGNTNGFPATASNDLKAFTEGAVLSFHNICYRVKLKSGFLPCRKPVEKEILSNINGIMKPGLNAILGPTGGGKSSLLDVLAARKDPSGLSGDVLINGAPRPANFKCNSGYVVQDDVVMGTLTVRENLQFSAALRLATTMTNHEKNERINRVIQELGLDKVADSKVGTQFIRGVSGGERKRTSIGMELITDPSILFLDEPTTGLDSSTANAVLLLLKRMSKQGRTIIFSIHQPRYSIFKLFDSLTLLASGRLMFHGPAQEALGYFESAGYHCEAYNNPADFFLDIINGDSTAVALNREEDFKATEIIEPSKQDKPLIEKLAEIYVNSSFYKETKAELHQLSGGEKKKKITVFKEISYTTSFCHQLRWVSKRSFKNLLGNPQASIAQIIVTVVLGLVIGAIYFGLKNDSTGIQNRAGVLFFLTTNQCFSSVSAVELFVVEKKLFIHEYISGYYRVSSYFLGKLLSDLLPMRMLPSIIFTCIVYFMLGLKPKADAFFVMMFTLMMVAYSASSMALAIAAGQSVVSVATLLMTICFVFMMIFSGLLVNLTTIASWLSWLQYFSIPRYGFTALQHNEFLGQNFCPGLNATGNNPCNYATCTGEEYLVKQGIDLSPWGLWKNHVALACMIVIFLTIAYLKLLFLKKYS

Chain of Xanthine dehydrogenase/oxidase (P47989 whole entry): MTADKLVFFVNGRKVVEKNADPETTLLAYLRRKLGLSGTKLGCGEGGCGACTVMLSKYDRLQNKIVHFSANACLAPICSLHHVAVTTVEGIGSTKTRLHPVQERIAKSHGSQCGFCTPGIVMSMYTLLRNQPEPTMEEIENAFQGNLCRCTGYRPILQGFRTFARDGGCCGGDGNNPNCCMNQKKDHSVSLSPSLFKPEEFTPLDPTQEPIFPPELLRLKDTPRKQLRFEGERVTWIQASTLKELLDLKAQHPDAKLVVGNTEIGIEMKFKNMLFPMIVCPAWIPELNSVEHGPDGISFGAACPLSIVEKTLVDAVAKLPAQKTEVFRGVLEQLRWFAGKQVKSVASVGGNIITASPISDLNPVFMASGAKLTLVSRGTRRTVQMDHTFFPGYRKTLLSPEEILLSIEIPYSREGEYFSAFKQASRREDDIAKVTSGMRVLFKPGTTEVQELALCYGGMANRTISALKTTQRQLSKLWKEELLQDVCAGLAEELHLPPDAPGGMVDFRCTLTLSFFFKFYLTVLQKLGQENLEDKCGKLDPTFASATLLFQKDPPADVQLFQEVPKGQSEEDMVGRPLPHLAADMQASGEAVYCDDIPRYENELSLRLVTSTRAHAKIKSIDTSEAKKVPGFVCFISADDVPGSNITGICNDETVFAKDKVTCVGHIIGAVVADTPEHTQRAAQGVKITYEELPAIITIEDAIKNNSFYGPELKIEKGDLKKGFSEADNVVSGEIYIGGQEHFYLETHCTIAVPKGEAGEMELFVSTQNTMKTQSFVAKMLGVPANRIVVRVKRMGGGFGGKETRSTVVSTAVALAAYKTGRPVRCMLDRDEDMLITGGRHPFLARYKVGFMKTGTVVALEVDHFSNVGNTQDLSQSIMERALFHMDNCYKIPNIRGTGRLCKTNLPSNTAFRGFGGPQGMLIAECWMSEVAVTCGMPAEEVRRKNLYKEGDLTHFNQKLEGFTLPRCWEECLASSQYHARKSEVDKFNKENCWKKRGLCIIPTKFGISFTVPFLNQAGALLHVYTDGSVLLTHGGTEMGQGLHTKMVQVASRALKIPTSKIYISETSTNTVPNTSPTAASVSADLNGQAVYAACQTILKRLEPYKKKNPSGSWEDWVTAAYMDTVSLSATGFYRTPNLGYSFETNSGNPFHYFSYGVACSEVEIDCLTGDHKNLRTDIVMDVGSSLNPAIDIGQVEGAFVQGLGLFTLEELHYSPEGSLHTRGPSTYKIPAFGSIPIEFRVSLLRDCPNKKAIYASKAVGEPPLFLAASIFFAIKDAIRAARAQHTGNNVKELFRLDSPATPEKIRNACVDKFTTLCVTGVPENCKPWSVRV

| Structure (SMILES) | IC50 [1] [µM] | also measured |
| --- | --- | --- |
| CC(=O)N1N=C(c2ccco2)CC1c1ccncc1 (centres undefined) | 5.3 | – |
| N#Cc1ccc(COc2cc(O)cc3oc4cc(O)c(O)cc4c(=O)c23)cc1 | 21.7 | – |
| O=c1cc(-c2ccc(F)cc2)oc2c1ccc1ccccc12 | 0.62 | – |
| O=C(O)[C@H]1O[C@@H](Oc2c(Cl)cc(C(=O)N3CS(=O)(=O)c4ccccc43)cc2Cl)[C@H](O)[C@@H](O)[C@@H]1O | – | bioavailability [2]: 44.3% |
| N#CC1=C(N)Oc2c(c(=O)oc3ccccc23)C1c1cccs1 (centres undefined) | 0.59 | – |
| O=C(c1cc(Cl)c(OS(=O)(=O)O)c(Cl)c1)N1CS(=O)(=O)c2ccccc21 | – | bioavailability [2]: 20% |
| Cc1nc(-c2ccc(OCC(C)(C)C)c(C#N)c2)n(O)c1C(=O)O | 6 | – |
| O=C(c1cc(Cl)c(O)c(Cl)c1)N1CS(=O)(=O)c2ccccc21 [DOTINURAD] | – | IC50 [3]: 0.0372 µM |
| Cc1nc(-c2ccc(OCC(C)C)c(C#N)c2)sc1C(=O)O [FEBUXOSTAT] | 25 | – |
